Experiments:
Experiment in all cases: Kinase panel study
Format in all cases: biochemical
Conditions in all cases: read-out: Percentage of inhibition; for inhibition at 1 µM: 1000nM; for inhibition at 10 µM: 10000nM
MAP3K19 (YSK4) = biological target: T1, MAP3K19 (YSK4) (Homo sapiens, UniProt Q56UN5)
T1 construct: purchased Thermo Fisher Scientific
T1 sequence (Q56UN5 1-1328): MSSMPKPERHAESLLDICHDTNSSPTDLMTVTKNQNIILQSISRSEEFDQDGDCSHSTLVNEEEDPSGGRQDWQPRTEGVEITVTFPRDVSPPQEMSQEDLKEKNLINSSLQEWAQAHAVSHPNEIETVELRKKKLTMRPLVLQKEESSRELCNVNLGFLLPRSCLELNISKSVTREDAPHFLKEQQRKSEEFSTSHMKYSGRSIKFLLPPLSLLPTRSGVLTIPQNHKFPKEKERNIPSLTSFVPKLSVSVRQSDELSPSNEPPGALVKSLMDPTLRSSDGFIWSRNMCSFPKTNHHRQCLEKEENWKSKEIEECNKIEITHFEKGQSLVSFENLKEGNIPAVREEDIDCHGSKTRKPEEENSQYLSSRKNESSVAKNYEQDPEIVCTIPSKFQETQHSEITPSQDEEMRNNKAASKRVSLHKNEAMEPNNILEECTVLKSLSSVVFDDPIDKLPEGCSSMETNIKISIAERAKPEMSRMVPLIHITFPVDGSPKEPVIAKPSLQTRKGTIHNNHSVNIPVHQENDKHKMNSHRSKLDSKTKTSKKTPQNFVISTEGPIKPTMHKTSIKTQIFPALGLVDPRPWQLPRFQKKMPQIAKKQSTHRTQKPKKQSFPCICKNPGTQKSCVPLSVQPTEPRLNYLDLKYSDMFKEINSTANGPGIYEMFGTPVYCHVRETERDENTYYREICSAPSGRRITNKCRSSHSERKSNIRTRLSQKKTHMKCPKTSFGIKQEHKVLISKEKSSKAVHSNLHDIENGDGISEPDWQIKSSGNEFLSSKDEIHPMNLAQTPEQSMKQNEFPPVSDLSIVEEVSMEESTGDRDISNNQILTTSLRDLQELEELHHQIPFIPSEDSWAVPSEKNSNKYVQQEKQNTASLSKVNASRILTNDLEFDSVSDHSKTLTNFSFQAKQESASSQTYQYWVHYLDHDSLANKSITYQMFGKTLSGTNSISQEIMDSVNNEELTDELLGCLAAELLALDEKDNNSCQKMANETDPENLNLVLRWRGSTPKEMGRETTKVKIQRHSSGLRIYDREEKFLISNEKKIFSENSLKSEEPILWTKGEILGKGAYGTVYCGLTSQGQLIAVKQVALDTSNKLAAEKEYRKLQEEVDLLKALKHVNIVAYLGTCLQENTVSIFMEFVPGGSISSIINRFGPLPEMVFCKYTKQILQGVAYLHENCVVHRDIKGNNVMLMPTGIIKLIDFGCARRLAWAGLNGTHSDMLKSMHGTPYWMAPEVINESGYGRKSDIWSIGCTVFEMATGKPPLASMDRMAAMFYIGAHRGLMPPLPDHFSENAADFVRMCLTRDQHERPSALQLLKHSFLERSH
Summary of the method: (§1)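 Compounds were tested in vitro against the kinase panel by a service lab. Assays followed standard ZLyte or Adapta protocols. Activity was recorded as % inhibition at 10 µM or 1 µM, with IC50 values where determined.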

FES (FPS) = biological target: T2, FES (FPS) (Homo sapiens, UniProt P07332)
T2 construct: purchased Thermo Fisher Scientific
T2 sequence (P07332 whole entry): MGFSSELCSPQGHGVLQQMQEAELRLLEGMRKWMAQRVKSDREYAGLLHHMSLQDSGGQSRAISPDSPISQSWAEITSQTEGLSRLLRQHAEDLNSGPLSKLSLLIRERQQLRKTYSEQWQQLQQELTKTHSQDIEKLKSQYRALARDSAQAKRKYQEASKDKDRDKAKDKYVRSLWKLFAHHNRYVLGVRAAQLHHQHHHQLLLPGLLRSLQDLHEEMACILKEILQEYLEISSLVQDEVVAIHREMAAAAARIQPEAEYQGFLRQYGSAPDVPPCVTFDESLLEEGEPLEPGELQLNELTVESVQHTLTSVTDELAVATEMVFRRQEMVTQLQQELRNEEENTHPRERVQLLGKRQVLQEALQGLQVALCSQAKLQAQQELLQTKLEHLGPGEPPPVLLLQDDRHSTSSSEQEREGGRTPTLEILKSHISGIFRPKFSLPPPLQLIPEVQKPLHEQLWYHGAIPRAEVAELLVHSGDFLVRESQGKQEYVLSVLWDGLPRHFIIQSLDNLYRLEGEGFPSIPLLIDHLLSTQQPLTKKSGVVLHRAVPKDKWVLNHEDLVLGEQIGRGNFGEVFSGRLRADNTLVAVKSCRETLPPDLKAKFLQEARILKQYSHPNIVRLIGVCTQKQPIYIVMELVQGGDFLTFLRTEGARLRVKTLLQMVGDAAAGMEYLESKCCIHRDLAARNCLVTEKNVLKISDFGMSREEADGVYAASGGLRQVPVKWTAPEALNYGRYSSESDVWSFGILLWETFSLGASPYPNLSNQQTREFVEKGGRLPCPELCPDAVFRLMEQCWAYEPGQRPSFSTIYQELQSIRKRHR
Summary of the method: as §1

KIT V559D V654A = biological target: T3, KIT V559D V654A (Homo sapiens, UniProt P10721, V559D/V654A)
T3 construct: purchased Thermo Fisher Scientific
T3 sequence (P10721 26-976 V559D/V654A): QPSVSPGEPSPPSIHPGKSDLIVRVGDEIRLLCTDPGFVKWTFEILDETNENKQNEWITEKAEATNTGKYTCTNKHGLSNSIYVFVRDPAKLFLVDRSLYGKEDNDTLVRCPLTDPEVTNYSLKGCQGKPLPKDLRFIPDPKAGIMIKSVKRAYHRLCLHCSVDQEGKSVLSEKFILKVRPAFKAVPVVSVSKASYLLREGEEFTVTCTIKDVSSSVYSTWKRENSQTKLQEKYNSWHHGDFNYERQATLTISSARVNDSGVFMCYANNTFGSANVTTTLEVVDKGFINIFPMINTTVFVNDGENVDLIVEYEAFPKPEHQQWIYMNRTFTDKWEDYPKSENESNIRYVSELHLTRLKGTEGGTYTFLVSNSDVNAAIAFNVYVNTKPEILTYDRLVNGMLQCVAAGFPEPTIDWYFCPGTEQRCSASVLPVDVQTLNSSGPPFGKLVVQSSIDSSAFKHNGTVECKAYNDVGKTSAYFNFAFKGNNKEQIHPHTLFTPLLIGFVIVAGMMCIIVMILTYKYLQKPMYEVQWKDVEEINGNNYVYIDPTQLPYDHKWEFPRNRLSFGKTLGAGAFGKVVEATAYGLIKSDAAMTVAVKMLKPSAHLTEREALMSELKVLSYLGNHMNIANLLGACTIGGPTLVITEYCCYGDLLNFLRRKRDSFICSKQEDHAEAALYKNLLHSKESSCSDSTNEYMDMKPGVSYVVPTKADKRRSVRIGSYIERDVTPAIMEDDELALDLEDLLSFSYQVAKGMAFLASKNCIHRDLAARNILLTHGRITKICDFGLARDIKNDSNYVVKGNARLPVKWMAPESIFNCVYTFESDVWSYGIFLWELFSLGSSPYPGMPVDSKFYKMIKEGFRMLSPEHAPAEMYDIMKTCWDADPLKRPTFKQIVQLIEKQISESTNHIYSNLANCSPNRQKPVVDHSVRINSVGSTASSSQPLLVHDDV
Summary of the method: as §1

PRKCE (PKC epsilon) = biological target: T4, PRKCE (PKC epsilon) (Homo sapiens, UniProt Q02156)
T4 construct: purchased Thermo Fisher Scientific
T4 sequence (Q02156 1-737): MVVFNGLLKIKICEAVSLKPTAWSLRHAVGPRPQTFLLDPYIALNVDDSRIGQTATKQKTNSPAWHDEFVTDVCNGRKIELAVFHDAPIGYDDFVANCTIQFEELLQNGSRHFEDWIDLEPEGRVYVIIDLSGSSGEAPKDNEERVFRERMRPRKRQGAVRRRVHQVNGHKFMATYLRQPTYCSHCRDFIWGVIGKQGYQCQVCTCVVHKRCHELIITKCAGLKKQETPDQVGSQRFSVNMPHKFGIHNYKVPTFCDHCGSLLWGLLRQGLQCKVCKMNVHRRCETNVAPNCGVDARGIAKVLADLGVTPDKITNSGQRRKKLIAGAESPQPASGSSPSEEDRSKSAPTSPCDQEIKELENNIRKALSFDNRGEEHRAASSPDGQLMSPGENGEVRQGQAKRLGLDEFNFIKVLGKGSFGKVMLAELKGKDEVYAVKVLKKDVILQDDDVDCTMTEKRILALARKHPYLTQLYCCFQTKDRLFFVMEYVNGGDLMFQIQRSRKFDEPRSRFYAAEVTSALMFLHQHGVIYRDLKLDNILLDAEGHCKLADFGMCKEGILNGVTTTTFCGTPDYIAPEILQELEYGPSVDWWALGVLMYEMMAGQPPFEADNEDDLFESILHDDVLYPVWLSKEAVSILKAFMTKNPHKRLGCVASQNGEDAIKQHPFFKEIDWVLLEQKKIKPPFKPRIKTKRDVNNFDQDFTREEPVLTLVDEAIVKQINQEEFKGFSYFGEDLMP
Summary of the method: as §1

SMILES | inhibition at 1 µM (MAP3K19 (YSK4)) [%] | inhibition at 10 µM (MAP3K19 (YSK4)) [%] | inhibition at 1 µM (FES (FPS)) [%] | inhibition at 10 µM (FES (FPS)) [%] | inhibition at 1 µM (KIT V559D V654A) [%] | inhibition at 10 µM (KIT V559D V654A) [%] | inhibition at 1 µM (PRKCE (PKC epsilon)) [%] | inhibition at 10 µM (PRKCE (PKC epsilon)) [%]
COc1ccc2c(c1OC)c(=O)n1c3ccc(O)cc3c3ccnc2c31 [MW01, 5-Hydroxy-10,11-dimethoxy-9H-benzo[c]indolo[3,2,1-ij][1,5]naphthyridin-9-one] | 4 | 17 | 0 | 15 | -10 | -12 | 9 | 8
COc1ccc2cc3c(N)nn(C(=O)c4cccc(N(C)C)c4)c3nc2c1 [MW05, (3-Amino-7-methoxypyrazolo[3,4-b]quinolin-1-yl)-[3-(dimethylamino)phenyl]methanone] | -3 | -5 | 1 | -1 | -16 | -37 | 6 | -12

Reference: EP4467141A1, “PYRAZOLO-QUINOLINES AS SELECTIVE INHIBITORS OF GENOTOXIC STRESS-INDUCED IKK/NF- KB PATHWAYS FOR CANCER THERAPY” (Max-Delbrück-Centrum für Molekulare Medizin in der …, priority 2023, dated 2024)
